Among the data in ChEMBL document CHEMBL1136339, “The C-4 stereochemistry of leucocyanidin substrates for anthocyanidin synthase affects product selectivity” (2003) are Specific activity values, retold here.

Experiment [1] is described as follows: Specific activity of 14CO2 formation from 1-[14C]-2OG corrected for uncoupled turnover in presence of anthocyanin synthase(ANS). In kind it is functional.
A short description of experiment [2]: Specific activity of 14CO2 formation from 1-[14C]-2OG in presence of anthocyanin synthase(ANS). Type of experiment: functional.

In the case of `Oc1cc(O)c2c(c1)O[C@H](c1ccc(O)c(O)c1)[C@@H](O)[C@H]2O`, the Specific activity in experiment [1] came out at 138 ukat kg-1; in experiment [2], 181.5 ukat kg-1.

In the case of `Oc1cc(O)c2c(c1)O[C@H](c1ccc(O)c(O)c1)[C@@H](O)[C@@H]2O`, the values for the Specific activity in experiment [1] and in experiment [2] were 342 ukat kg-1 and 385 ukat kg-1, respectively.

For `Oc1cc(O)c2c(c1)O[C@@H](c1ccc(O)c(O)c1)[C@H](O)[C@@H]2O.Oc1cc(O)c2c(c1)O[C@H](c1ccc(O)c(O)c1)[C@@H](O)[C@H]2O` (racemic), the Specific activity in experiment [1] came to 41 ukat kg-1; in experiment [2], 84.1 ukat kg-1.

In the case of `Oc1cc(O)c2c(c1)O[C@@H](c1ccc(O)c(O)c1)[C@H](O)[C@H]2O.Oc1cc(O)c2c(c1)O[C@H](c1ccc(O)c(O)c1)[C@@H](O)[C@@H]2O` (racemic), the figures for the Specific activity in experiment [1] and in experiment [2] were 145 ukat kg-1 and 188.4 ukat kg-1, respectively.
